# Data published in patent US9434734B2, “Substituted pyrazoloquinazolinones and pyrroloquinazolinones as allosteric modulators of group II metabotropic glutamate receptors” (Domain Therapeutics, priority 2012, dated 2016).
# Legend:
# [1] = target: T1, human mGluR2 (hmGluR2) transiently over-expressed in HEK-293 cells (Homo sapiens, UniProt Q14416); assay: Human mGluR2 negative allosteric modulator evaluation using Ca++ functional assay (agonist and NAM activity); assay type: cell-based; details: hmGluR2 in HEK-293 cells, EC80 glutamate, Fluo4AM calcium readout; read-out: mGluR2 negative allosteric modulator activity IC50
# T1 construct: expressed in transfected cells; host or cells: HEK-293 cells, transient co-transfection by electroporation
# T1 sequence (Q14416 19-872): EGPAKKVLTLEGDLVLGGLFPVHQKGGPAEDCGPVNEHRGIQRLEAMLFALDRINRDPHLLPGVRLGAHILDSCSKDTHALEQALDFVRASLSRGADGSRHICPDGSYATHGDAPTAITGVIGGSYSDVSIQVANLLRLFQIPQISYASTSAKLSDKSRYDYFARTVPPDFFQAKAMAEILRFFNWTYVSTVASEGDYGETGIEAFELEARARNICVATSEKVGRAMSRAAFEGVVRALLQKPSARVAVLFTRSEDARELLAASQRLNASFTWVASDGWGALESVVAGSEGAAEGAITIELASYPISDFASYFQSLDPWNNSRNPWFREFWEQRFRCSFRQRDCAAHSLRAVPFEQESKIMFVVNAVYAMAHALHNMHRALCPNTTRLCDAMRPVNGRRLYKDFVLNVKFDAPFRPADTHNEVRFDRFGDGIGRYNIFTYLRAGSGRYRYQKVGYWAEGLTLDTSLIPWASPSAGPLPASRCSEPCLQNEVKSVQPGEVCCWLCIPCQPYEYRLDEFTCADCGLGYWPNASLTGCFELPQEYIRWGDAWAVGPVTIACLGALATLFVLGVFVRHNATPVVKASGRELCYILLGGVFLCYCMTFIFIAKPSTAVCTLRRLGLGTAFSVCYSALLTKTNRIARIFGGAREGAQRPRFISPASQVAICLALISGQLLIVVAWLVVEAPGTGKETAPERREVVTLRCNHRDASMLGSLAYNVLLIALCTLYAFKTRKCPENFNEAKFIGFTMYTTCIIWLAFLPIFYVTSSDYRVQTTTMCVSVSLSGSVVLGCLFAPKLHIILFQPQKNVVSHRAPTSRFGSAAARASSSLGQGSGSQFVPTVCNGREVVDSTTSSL
# In short: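 Compound alone (agonist mode) was followed on the same plate by EC80 glutamate (NAM mode), with fluorescence read 60 s. Eight-point curves, variable-slope fit, duplicate, two independent runs.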
SMILES,melting point [°C],IC50 [1] [µM]
"Cc1cc(-c2ccc3c(=O)n(C)c4cc(C5CCCC5)nn4c3c2)cc(C)n1.Cl [Example 66, 2-Cyclopentyl-8-(2,6-dimethyl-pyridin-4-yl)-4-methyl-4H-pyrazolo[1,5-a]quinazolin-5-one]",> 250,< 1
"CCn1c(=O)c2ccc(-c3cc(C)nc(C)c3)cc2n2nc(C3CCCC3)cc12.Cl [Example 70, 2-Cyclopentyl-8-(2,6-dimethyl-pyridin-4-yl)-4-ethyl-4H-pyrazolo[1,5-a]quinazolin-5-one]",> 250,< 1
"CCCn1c(=O)c2ccc(-c3ccc(N)nc3)cc2n2nc(C3CCCC3)cc12.Cl [Example 71, 8-(6-Amino-pyridin-3-yl)-2-cyclopentyl-4-propyl-4H-pyrazolo[1,5-a]quinazolin-5-one]",> 250,< 1
"Cl.Cn1c(=O)c2ccc(-c3ccc(N)nc3)cc2n2nc(C3CCCCC3)cc12 [Example 74, 8-(6-Amino-pyridin-3-yl)-2-cyclohexyl-4-methyl-4H-pyrazolo[1,5-a]quinazolin-5-one]",194 to 197,< 1
"Cl.Cn1c(=O)c2ccc(-c3ccc(N)nc3)cc2n2nc(Cc3ccccc3)cc12 [Example 79, 8-(6-Amino-pyridin-3-yl)-2-benzyl-4-methyl-4H-pyrazolo[1,5-a]quinazolin-5-one]",> 250,< 1
"Cl.Cn1c(=O)c2ccc(-c3ccc(N)nc3)cc2n2nc(-c3ccc(F)cc3)cc12 [Example 80, 8-(6-Amino-pyridin-3-yl)-2-(4-fluoro-phenyl)-4-methyl-4H-pyrazolo[1,5-a]quinazolin-5-one]",> 250,< 1
"Cc1n[nH]cc1-c1ccc2c(=O)n(C)c3cc(-c4ccc(F)cc4)nn3c2c1 [Example 81, 2-(4-Fluoro-phenyl)-4-methyl-8-(3-methyl-1H-pyrazol-4-yl)-4H-pyrazolo[1,5-a]quinazolin-5-one]",> 250,< 1
"Cl.Cn1c(=O)c2ccc(-c3ccc(N)nc3)cc2n2nc(-c3ccco3)cc12 [Example 82, 8-(6-Amino-pyridin-3-yl)-2-furan-2-yl-4-methyl-4H-pyrazolo[1,5-a]quinazolin-5-one]",218 to 229,< 1
"Cl.Cn1c(=O)c2ccc(-c3ccc(N)nc3)cc2n2nc(C3CCS(=O)(=O)CC3)cc12 [Example 84, 8-(6-Amino-pyridin-3-yl)-2-(1,1-dioxo-tetrahydro-2H-thiopyran-4-yl)-4-methyl-4H-pyrazolo[1,5-a]quinazolin-5-one]",> 250,< 1
"Cn1cc(-c2ccc3c(=O)n(C)c4cc(-c5cccnc5)nn4c3c2)cn1 [Example 85, 4-Methyl-8-(1-methyl-1H-pyrazol-4-yl)-2-pyridin-3-yl-4H-pyrazolo[1,5-a]quinazolin-5-one]",> 250,< 1
"Cn1c(=O)c2ccc(-c3cccc(C#N)c3)cc2n2nc(C3CCOCC3)cc12 [Example 88, 3-[4-Methyl-5-oxo-2-(tetrahydro-pyran-4-yl)-4,5-dihydro-pyrazolo[1,5-a]quinazolin-8-yl]-benzonitrile]",210 to 216,< 1
"Cl.Cn1c(=O)c2ccc(-c3cccnc3)cc2n2nc(C3CCOCC3)cc12 [Example 89, 4-Methyl-8-pyridin-3-yl-2-(tetrahydro-pyran-4-yl)-4H-pyrazolo[1,5-a]quinazolin-5-one]",202 to 224,< 1
"Cc1cc(-c2ccc3c(=O)n(C)c4cc(C5CCOCC5)nn4c3c2)cc(C)n1.Cl [Example 97, 8-(2,6-Dimethyl-pyridin-4-yl)-4-methyl-2-(tetrahydro-pyran-4-yl)-4H-pyrazolo[1,5-a]quinazolin-5-one]",> 250,< 1
"Cl.Nc1ccc(-c2ccc3c(=O)n(CC(F)F)c4cc(C5CCOCC5)nn4c3c2)cn1 [Example 103, 8-(6-Amino-pyridin-3-yl)-4-(2,2-difluoro-ethyl)-2-(tetrahydro-pyran-4-yl)-4H-pyrazolo[1,5-a]quinazolin-5-one]",> 250,< 1
"Cc1cc(-c2ccc3c(=O)n(C)c4cc(C5CCOC5)nn4c3c2)cc(C)n1.Cl (stereo not shown) [Example 106, 8-(2,6-Dimethyl-pyridin-4-yl)-4-methyl-2-(tetrahydro-furan-3-yl)-4H-pyrazolo[1,5-a]quinazolin-5-one]",> 250,< 1
"Cc1cc(-c2ccc3c(=O)n(C)c4cc(C5CCCOC5)nn4c3c2)cc(C)n1.Cl (stereo not shown) [Example 108, 8-(2,6-Dimethyl-pyridin-4-yl)-4-methyl-2-(tetrahydro-pyran-3-yl)-4H-pyrazolo[1,5-a]quinazolin-5-one]",182 to 193,< 1
"Cc1cc(-c2ccc3c(=O)n(C)c4cc(C5CCCCO5)nn4c3c2)cc(C)n1.Cl (stereo not shown) [Example 109, 8-(2,6-Dimethyl-pyridin-4-yl)-4-methyl-2-(tetrahydro-pyran-2-yl)-4H-pyrazolo[1,5-a]quinazolin-5-one]",186 to 194,< 1
"Cl.Cn1c(=O)c2ccc(-c3ccc(N)nc3)cc2n2cc(-c3ccccc3)cc12 [Example 110, 8-(6-Amino-pyridin-3-yl)-4-methyl-2-phenyl-4H-pyrrolo[1,2-a]quinazolin-5-one]",> 250,< 1
"Cc1cc(-c2cc3n(C)c(=O)c4ccc(-c5ccccc5)cc4n3n2)cc(C)n1.Cl [Example 115, 2-(2,6-Dimethyl-pyridin-4-yl)-4-methyl-8-phenyl-4H-pyrazolo[1,5-a]quinazolin-5-one]",> 250,< 1
"Cc1cc(-c2cc3n(C)c(=O)c4ccc(-c5cnn(C)c5)cc4n3n2)cc(C)n1.Cl [Example 122, 2-(2,6-Dimethyl-pyridin-4-yl)-4-methyl-8-(1-methyl-1H-pyrazol-4-yl)-4H-pyrazolo[1,5-a]quinazolin-5-one]",> 250,< 1
"Cn1cc(-c2cc3n(C)c(=O)c4ccc(-c5ccccc5)cc4n3n2)cn1 [Example 124, 4-Methyl-2-(1-methyl-1H-pyrazol-4-yl)-8-phenyl-4H-pyrazolo[1,5-a]quinazolin-5-one]",228 to 231,< 1

# Results, then the molecule that gave them:
melting point [°C],IC50 [1] [µM],SMILES
> 250,< 1,"Cc1n[nH]cc1-c1ccc2c(=O)n(C)c3cc(C4CCCCC4)nn3c2c1 [Example 75, 2-Cyclohexyl-4-methyl-8-(3-methyl-1H-pyrazol-4-yl)-4H-pyrazolo[1,5-a]quinazolin-5-one]"
> 250,< 1,"Cc1cc(-c2ccc3c(=O)n(C)c4cc(C5CCCCCC5)nn4c3c2)cc(C)n1.Cl [Example 77, 2-Cycloheptyl-8-(2,6-dimethyl-pyridin-4-yl)-4-methyl-4H-pyrazolo[1,5-a]quinazolin-5-one]"
> 250,< 1,"Cl.Cn1c(=O)c2ccc(-c3ccc(N)nc3)cc2n2nc(C3CCSCC3)cc12 [Example 83, 8-(6-Amino-pyridin-3-yl)-4-methyl-2-(tetrahydro-thiopyran-4-yl)-4H-pyrazolo[1,5-a]quinazolin-5-one]"
> 250,< 1,"Cl.Cn1c(=O)c2ccc(-c3ccc(N)nc3)cc2n2nc(C3CCOCC3)cc12 [Example 86, 8-(6-Amino-pyridin-3-yl)-4-methyl-2-(tetrahydro-pyran-4-yl)-4H-pyrazolo[1,5-a]quinazolin-5-one]"
223 to 229,< 1,"Cc1[nH]ncc1-c1ccc2c(=O)n(C)c3cc(C4CCOCC4)nn3c2c1 [Example 92, 4-Methyl-8-(5-methyl-1H-pyrazol-4-yl)-2-(tetrahydro-pyran-4-yl)-4H-pyrazolo[1,5-a]quinazolin-5-one]"
223 to 226,< 1,"Cn1c(=O)c2ccc(-c3cccc(S(=O)(=O)NC(C)(C)CO)c3)cc2n2nc(C3CCOCC3)cc12 [Example 101, N-(2-Hydroxy-1,1-dimethyl-ethyl)-3-[4-methyl-5-oxo-2-(tetrahydro-pyran-4-yl)-4,5-dihydro-pyrazolo[1,5-a]quinazolin-8-yl]-benzenesulfonamide]"
> 250,< 1,"Cc1cc(-c2ccc3c(=O)n(CC(F)F)c4cc(C5CCOCC5)nn4c3c2)cc(C)n1.Cl [Example 102, 4-(2,2-Difluoro-ethyl)-8-(2,6-dimethyl-pyridin-4-yl)-2-(tetrahydro-pyran-4-yl)-4H-pyrazolo[1,5-a]quinazolin-5-one]"
> 250,< 1,"Cl.Nc1ccc(-c2ccc3c(=O)n(CC(F)(F)F)c4cc(C5CCOCC5)nn4c3c2)cn1 [Example 104, 8-(6-Amino-pyridin-3-yl)-2-(tetrahydro-pyran-4-yl)-4-(2,2,2-trifluoro-ethyl)-4H-pyrazolo[1,5-a]quinazolin-5-one]"
> 250,< 1,"Cc1cc(-c2ccc3c(=O)n(C)c4cc(-c5ccccc5)cn4c3c2)cc(C)n1.Cl [Example 111, 8-(2,6-Dimethyl-pyridin-4-yl)-4-methyl-2-phenyl-4H-pyrrolo[1,2-a]quinazolin-5-one]"
> 250,< 1,"Cc1cc(-c2cc3n(C)c(=O)c4ccc(-c5c[nH]nc5C)cc4n3n2)cc(C)n1.Cl [Example 121, 2-(2,6-Dimethyl-pyridin-4-yl)-4-methyl-8-(3-methyl-1H-pyrazol-4-yl)-4H-pyrazolo[1,5-a]quinazolin-5-one]"
> 250,< 1,"Cl.Cn1cc(-c2cc3n(C)c(=O)c4ccc(-c5cccnc5)cc4n3n2)cn1 [Example 126, 4-Methyl-2-(1-methyl-1H-pyrazol-4-yl)-8-pyridin-3-yl-4H-pyrazolo[1,5-a]quinazolin-5-one]"
